Format in all cases: in vivo
Assay [1] concerns green peach aphids (Myzus persicae). Briefly: Insecticidal test for green peach aphids. The conditions noted are these: Myzus persicae, foliar, 144 h; 500 ppm chemical solution sprinkled (2.5 mg/cm^2), wingless imagoes on leaf disc, six days, 25°C; read-out: death rate. The procedure, abridged:
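Four wingless Myzus persicae adults on a 3 cm Chinese olive leaf disc over wet cotton, sprayed one day later with a 500 ppm dilution of a 10% emulsion plus spreader (2.5 mg/cm^2, rotary tower). Dishes were capped and held at 25°C. Run in duplicate.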

Assay [2] deals with brown rice planthoppers (Nilaparvata lugens). Put plainly: Insecticidal test for brown rice planthoppers. The conditions noted are these: Nilaparvata lugens, 144 h; 500 ppm chemical solution, rice leaf sheaths soaked, third-instar larvae, six days, 25°C; read-out: death rate. In outline: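 Rice leaf sheaths dipped ~10 s in 500 ppm compound solution (emulsion diluted in water with spreader), air-dried, then infested with five third-instar larvae per tube at 25 °C. Mortality scored after 6 days, death rate calculated, in duplicate.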

The test system of assay [3] is cat fleas (Ctenocephalides felis). Briefly: whole plant or invertebrate. Conditions: 72 h, read-out: death rate. The procedure, abridged: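 Glass containers (25 cm² inner surface) were coated with 250 µl of a 1000 ppm acetone solution, and the acetone was evaporated to leave a dry film. Five mixed-sex adult fleas were confined per container at 25°C. Mortality was scored after 3 days.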

Assay [4] deals with diamondback moths (Plutella xylostella). Put plainly: Insecticidal test for diamondback moths. The conditions noted are these: Plutella xylostella, 144 h; 500 ppm chemical solution, leaves soaked, third-instar larvae, six days, 25°C; read-out: death rate. In outline:
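Leaves dipped about 10 s in a 500 ppm aqueous dilution of an emulsion formulation with spreader, then air-dried. Five third-instar larvae released per dish and held at 25 °C. Tested in duplicate.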

Assay [5] concerns western flower thrips (Frankliniella occidentalis). Put plainly: Insecticidal activity against western flower thrips. Conditions: Frankliniella occidentalis, 48 h; 500 ppm chemical solution sprinkled (2.5 mg/cm^2), larvae on common bean leaf, after 2 days; read-out: death rate. In outline: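 Bean leaf squares on wet filter paper inoculated with 20 larvae. Compound emulsion diluted with spreader-containing water to 500 ppm and sprayed at 2.5 mg/cm^2 by rotary tower. Run in duplicate.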

Structures are written as SMILES.

Consider `O=C(Nc1ncccc1F)C1=C(O)CC(c2cnc(Cl)c(-c3cnccc3F)c2)NC1=O` (stereo not drawn) [2-141], for which the mortality at 500 µg/mL in assay [1], in assay [2], in assay [4] and in assay [5] was at least 90% each time. Besides, the mortality at 10 µg/cm2 in assay [3] is at least 50%.

With `O=C(Nc1cc(F)ccn1)C1=C(O)CC(c2nc(-c3c(F)cc(F)cc3F)no2)NC1=O` (stereo not drawn) [3-144], the mortality at 500 µg/mL in assay [1], in assay [2], in assay [4] and in assay [5] was at least 90% each time. Moreover, in assay [3], the mortality at 10 µg/cm2 is at least 50%.

Take `O=C(Nc1ccc(F)nc1)C1=C(O)CC(c2cnc(Cl)c(-c3ccccc3)c2)NC1=O` (stereo not drawn) [2-091]: the mortality at 500 µg/mL in assay [1], in assay [2], in assay [4] and in assay [5] was at least 90% throughout. Further, the mortality at 10 µg/cm2 in assay [3] was at least 50%.

With `O=C(Nc1ccc(F)cc1)C1=C(O)CC(c2nc(-c3ccc(F)cc3F)no2)NC1=O` (stereo not drawn) [3-131], the mortality at 500 µg/mL in assay [1], in assay [2], in assay [4] and in assay [5] was at least 90% each time. Moreover, in assay [3], the mortality at 10 µg/cm2 was at least 50%.

For the compound `O=C(Nc1ccc(F)cc1)C1=C(O)CC(c2ccc(C(F)(F)F)c(-c3ccncc3)c2)NC1=O` (stereo not drawn) [1-014], the mortality at 500 µg/mL in assay [1], in assay [2], in assay [4] and in assay [5] was at least 90% throughout. Moreover, the mortality at 10 µg/cm2 in assay [3] is at least 50%.

Turning to `O=C(Nc1ccc(F)cc1)C1=C(O)CC(c2nc(-c3cccc(F)c3)no2)NC1=O` (stereo not drawn) [3-011], the mortality at 500 µg/mL in assay [1], in assay [2], in assay [4] and in assay [5] was at least 90% throughout. Besides, the mortality at 10 µg/cm2 in assay [3] is at least 50%.

In the case of `O=C(Nc1cc(Br)ccn1)C1=C(O)CC(c2nc(-c3ccncc3Cl)no2)NC1=O` (stereo not drawn) [3-232], the mortality at 500 µg/mL in assay [1], in assay [2], in assay [4] and in assay [5] was at least 90% each time. In addition, the mortality at 10 µg/cm2 in assay [3] is at least 50%.

Take `O=C(Nc1nccs1)C1=C(O)CC(c2nc(-c3ccncc3F)no2)NC1=O` (stereo not drawn) [3-246]: the mortality at 500 µg/mL in assay [1], in assay [2], in assay [4] and in assay [5] was at least 90% throughout. The mortality at 10 µg/cm2 in assay [3] is at least 50%.

As to `O=C(Nc1cc(F)ccn1)C1=C(O)CC(c2nc(-c3ccccc3F)no2)NC1=O` (stereo not drawn) [3-058], the mortality at 500 µg/mL in assay [1], in assay [2], in assay [4] and in assay [5] was at least 90% throughout. Besides, in assay [3], the mortality at 10 µg/cm2 is at least 50%.

In the case of `O=C(Nc1cc(F)ccn1)C1=C(O)CC(c2nc(-c3ccc(F)cc3)no2)NC1=O` (stereo not drawn) [3-056], the mortality at 500 µg/mL in assay [1], in assay [2], in assay [4] and in assay [5] was at least 90% in each case. In assay [3], the mortality at 10 µg/cm2 is at least 50%.

`O=C(Nc1ccc(Cl)cc1)C1=C(O)CC(c2cnc(Cl)c(-c3ccc(F)nc3)c2)NC1=O` (stereo not drawn) [2-035, 6'-chloro-N-(4-chlorophenyl)-6"-fluoro-4-hydroxy-6-oxo-1,2,3,6-tetrahydro-[2,3':5',3"-terpyridine]-5-carboxamide]: the mortality at 500 µg/mL in assay [1], in assay [2], in assay [4] and in assay [5] was at least 90% each time. Also, the mortality at 10 µg/cm2 in assay [3] is at least 50%.

Regarding `Cc1cccnc1NC(=O)C1=C(O)CC(c2nc(-c3ccc(F)cc3F)no2)NC1=O` (stereo not drawn) [3-174], the mortality at 500 µg/mL in assay [1], in assay [2], in assay [4] and in assay [5] was at least 90% each time. In assay [3], the mortality at 10 µg/cm2 was at least 50%.

The values above are taken from patent EP4582413A1, “ARYLTETRAHYDROPYRIDINE COMPOUND AND PEST CONTROL AGENT” (priority 2022, dated 2024).
